In patent US20070172423A1, “Composition and method for modulating vasculogenesis for angiogenesis” (priority 1998, published 2007):

Key:
[1] = tested on: human bone marrow-derived AC133+CD34+ cells; assay: Human bone marrow cell adherence and differentiation assay; type: cell-based; settings: 50 ng/ml
Method: Enriched human BM derived AC133+CD34+ cells (Clonetics) at 10^5/ml were cultured for 3 days in HPGM (Clonetics) in a 6-well plate (Becton Dickinson). Cells were then seeded in collagen coated 12-well plates in EBM (Clonetics) medium containing 4% FCS and VEGF165 (R&D Systems) or PDGF-CC (50 ng/ml each). Growth factors were added every two days and media were refreshed at 75% every four days. For adherence assay, 2.5×10^4 of non-adherent cells/ml were cultured in the same condition on chamber slides coated with collagen, or in 96-well plate coated with 0.3% gelatin in PBS. Cells were then washed three times with PBS, fixed and stained with May-Grünwald Giemsa (Sigma) after two weeks of culture on chamber slides (Becton Dickinson). The number of viable cells was estimated by ATP quantification using cellTiter-glo luminescent cell viability assay (Promega) according to the manufacturer's instructions. For cell surface marker staining, cells (2×10^4/well) cultured on collagen-coated culture slides for two or four weeks were fixed (45 min, 25° C.) and permeabilized (45 min, 25° C.) using a Intrastain Kit (DAKO), and then labeled with CD31-FITC (Becton Dickinson), CD144-FITC (Pharmingen), CD34-FITC (Becton Dickinson) or SMC-Actin CY3 (Sigma). Single or double-labeled cells were analyzed using laser confocal immunofluorescence microscopy.
Upon stimulation by growth factors or cytokines, bone marrow stem/progenitor cells can differentiate into ECs and SMCs and thereby contribute to angio/arteriogenesis (Orlic et al., Nature, 2001 410:701-5; Kawamoto et al., Circulation, 2001 103:634-7; Asahara et al., Circ Res, 1999 85:221-8). The potential role of PDGF-CC in the differentiation of bone marrow progenitors into vascular cells has, however, not been investigated thus far. We therefore cultured human bone marrow-derived AC133^+CD34^+ cells—a population enriched for stem/progenitor cells (Miraglia et al., Blood, 1997 90:5013-21; Yu et al., J Biol Chem, 2002 277:20711-6; Donnelly et al., Leuk Lymphoma, 2001 40:221-34)—and stimulated them with PDGF-CC, using VEGF as a control (50 ng/ml each).

[2] = tested on: human microvascular endothelial cells (HMVEC); assay: Cell migration assay, HMVEC; type: cell-based; settings: wounded monolayer, 20 hours, serum-free medium
Method: (§1) Cell migration assays were performed on growth arrested confluent HMVEC, BAEC or hSMC cells. Cell monolayers were wounded with a rubber policeman and washed with serum-free medium. Dishes were then incubated for 20 hours in serum-free medium containing VEGF165, PDGF-AA, (R&D Systems, Minneapolis USA) or PDGF-CC. Each assay included two dishes per condition and was repeated three times independently. Cells were photographed at 40× magnification, and migration percentage corresponding to the ratio between area of the cells and the total area of the wound (Biocom visiol@b 2000 version 4.52, San Diego). For HMVEC proliferation assay, cells were seeded in 96-well plates (5 wells per condition), and incubated with VEGF, PDGF-AA, or PDGF-CC (50 ng/ml) after serum starvation. After 7 days, viable cells were counted using the cell Titer-glo luminescent cell viability assay. For NIH-3T3 and hSMC proliferation assay, cells cultured in 96-well plates were serum-starved overnight, followed by treatment with growth factors at different concentrations. Two days later, cell numbers were counted and proliferation percentage calculated, using cells cultured in medium containing 10% serum as control. Aortic ring assay was performed as described 51. […] Aortic rings were analysed at day 9 of culturing. […]

[3] = tested on: HMVEC; assay: HMVEC proliferation assay; type: cell-based, human; settings: 50 ng/ml, 7 days
Method: as §1

[4] = tested on: aortic rings; assay: Aortic ring assay; type: cell-based; settings: for number of sprouting microvessels: day 9 of culturing, versus control
Method: Cell migration assays were performed on growth arrested confluent HMVEC, BAEC or hSMC cells. Cell monolayers were wounded with a rubber policeman and washed with serum-free medium. Dishes were then incubated for 20 hours in serum-free medium containing VEGF165, PDGF-AA, (R&D Systems, Minneapolis USA) or PDGF-CC. Each assay included two dishes per condition and was repeated three times independently. Cells were photographed at 40× magnification, and migration percentage corresponding to the ratio between area of the cells and the total area of the wound (Biocom visiol@b 2000 version 4.52, San Diego). For HMVEC proliferation assay, cells were seeded in 96-well plates (5 wells per condition), and incubated with VEGF, PDGF-AA, or PDGF-CC (50 ng/ml) after serum starvation. After 7 days, viable cells were counted using the cell Titer-glo luminescent cell viability assay. For NIH-3T3 and hSMC proliferation assay, cells cultured in 96-well plates were serum-starved overnight, followed by treatment with growth factors at different concentrations. Two days later, cell numbers were counted and proliferation percentage calculated, using cells cultured in medium containing 10% serum as control. Aortic ring assay was performed as described 51. Briefly, one-millimeter long aortic rings were embedded in gels of rat tail interstitial collagen and cultured at 37° C., supplemented with different growth factors (50 ng/ml). Aortic rings were analysed at day 9 of culturing. Experiments included three explants per condition and were repeated at least twice. Aortic rings were photographed at 25× magnification.
Although PDGFR-α is expressed on endothelial cells (Edelberg et al., Journal of Clinical Investigation, 1998 102:837-43; Smits et al., Growth Factors, 1989 2:1-8; Bar et al., Endocrinology, 1989 124:1841-8; Beitz et al., Proc Natl Acad Sci USA, 1991 88:2021-5; Marx et al., J Clin Invest, 1994 93:131-9; Shinbrot et al., Dev. Dyn., 1994 199:169-175), little is known about the functional consequence of PDGFR-α signaling in these cells. […] We also tested the effect of PDGF-CC on cultured aortic rings, as this assay allows assessment of the outgrowth of microvessels from an intact vessel in vitro (Blacher et al., Angiogenesis, 2001 4:133-42). Results are graphically represented as the number of microvessels and the distance over which they grew out from the aortic ring. Each experiment included three explants per condition and was repeated at least twice. At day 9 after culturing, microvessels and the distance of their outgrowth were quantified and evaluated using Student's t test. In baseline conditions, only a small number of microvessels sprouted from the aortic rings—most of them over very short distances (0.25 mm from the aortic ring)—and only a small fraction (<5%) growing out over longer distances (>0.5 mm from the aortic ring, FIG. 41a). VEGF increased not only the number of sprouting microvessels (P<0.001 at all concentrations versus control), but also the distance over which they grew out (P<0.05 at all concentrations versus control; FIG. 41b,f). At 30 ng/ml, PDGF-CC increased the number of microvessels (P<0.001 versus control, FIG. 41e,g) and increased the distance of vessel outgrowth at 5 ng/ml (P<0.01 versus control, FIG. 41g). […] A similar bell-shaped dose-response relationship has been documented for other members of the VEGF/PDGF-superfamily (Jin et al., J Mol Neurosci, 2000 14:197-203). PDGF-AA, however, had no effect on the number of microvessels, although it increased the distance of vessel outgrowth at 5 ng/ml (P<0.01 versus control, FIG. 41h). Thus, PDGF-CC mobilized EC migration in cultured cells and promoted microvessel sprouting in the aortic ring assay.
The mitogenic and chemotactic effect of PDGF-CC was then tested on SMCs and perivascular fibroblast cells, and the effect of PDGF-CC was compared to that of VEGF and PDGF-AA in both cultured cells and the aortic ring assay (Blacher et al., Angiogenesis, 2001 4:133-42). […]

[5] = tested on: hSMC; assay: Cell migration assay, hSMC; type: cell-based, human; settings: wounded monolayer, 20 hours
Method: as §1, with “For HMVEC proliferation assay, cells were seeded in 96-well plates (5 wells per condition), and incubated with VEGF, PDGF-AA, or PDGF-CC (50 ng/ml) after serum starvation.” left out, “For NIH-3T3 and hSMC proliferation assay, cells cultured in 96-well plates were serum-starved overnight, followed by treatment with growth factors at different concentrations.” left out, “control.” for “control. Aortic ring assay was performed as described 51.”
The mitogenic and chemotactic effect of PDGF-CC was then tested on SMCs and perivascular fibroblast cells, and the effect of PDGF-CC was compared to that of VEGF and PDGF-AA in both cultured cells and the aortic ring assay (Blacher et al., Angiogenesis, 2001 4:133-42). […] In the aortic ring assay, we quantified the growth and emigration of perivascular fibroblasts from the intact vessel using computer-assisted image analysis after treatment with VEGF and different PDGFs at different concentrations. […]

[6] = tested on: protease in AG1523 medium processing full-length PDGF-C; assay: Protease inhibitor analysis of PDGF-C processing by AG1523 medium; type: biochemical, human; settings: AG1523 serum-free medium, 37° C. overnight, immunoblot
Method: To elucidate the mechanism of the proteolysis of PDGF-C a protease inhibitor analysis was conducted. Various protease inhibitors (see Table 1, source: Sigma) were pre-incubated with 0.9 ml of AG1523 serum-free medium at room temperature for 30 minutes, then incubated with 0.2 ml of recombinant full-length PDGF-C (Sf9 serum-free medium) at 37° C. overnight. TCA-precipitated proteins were subjected to SDS-page under reducing conditions and then immunoblotted. Recombinant PDGF-C was detected using an anti-His6 epitope monoclonal antibody (C-terminal) (InVitrogen).

[7] = tested on: bovine aorta endothelial cells (BAEC); assay: Cell migration assay, BAEC; type: cell-based; settings: wounded monolayer, 20 hours, serum-free medium
Method: as §1

[8] = tested on: hSMC; assay: hSMC proliferation assay; type: cell-based, human; settings: two days, different concentrations
Method: as §1

[9] = tested on: NIH-3T3 fibroblast cells; assay: NIH-3T3 proliferation assay; type: cell-based; settings: two days, different concentrations
Method: as §1

[10] = molecular target: T1, human PDGF receptor alpha (Homo sapiens, UniProt P16234); assay: Competition with 125I-PDGF-BB for binding to PAE-1 cells expressing PDGF alpha-receptor; settings: 5 ng/ml 125I-PDGF-BB tracer, on ice 90 minutes
T1 construct: expressed in transfected cells
T1 sequence (P16234 24-1089): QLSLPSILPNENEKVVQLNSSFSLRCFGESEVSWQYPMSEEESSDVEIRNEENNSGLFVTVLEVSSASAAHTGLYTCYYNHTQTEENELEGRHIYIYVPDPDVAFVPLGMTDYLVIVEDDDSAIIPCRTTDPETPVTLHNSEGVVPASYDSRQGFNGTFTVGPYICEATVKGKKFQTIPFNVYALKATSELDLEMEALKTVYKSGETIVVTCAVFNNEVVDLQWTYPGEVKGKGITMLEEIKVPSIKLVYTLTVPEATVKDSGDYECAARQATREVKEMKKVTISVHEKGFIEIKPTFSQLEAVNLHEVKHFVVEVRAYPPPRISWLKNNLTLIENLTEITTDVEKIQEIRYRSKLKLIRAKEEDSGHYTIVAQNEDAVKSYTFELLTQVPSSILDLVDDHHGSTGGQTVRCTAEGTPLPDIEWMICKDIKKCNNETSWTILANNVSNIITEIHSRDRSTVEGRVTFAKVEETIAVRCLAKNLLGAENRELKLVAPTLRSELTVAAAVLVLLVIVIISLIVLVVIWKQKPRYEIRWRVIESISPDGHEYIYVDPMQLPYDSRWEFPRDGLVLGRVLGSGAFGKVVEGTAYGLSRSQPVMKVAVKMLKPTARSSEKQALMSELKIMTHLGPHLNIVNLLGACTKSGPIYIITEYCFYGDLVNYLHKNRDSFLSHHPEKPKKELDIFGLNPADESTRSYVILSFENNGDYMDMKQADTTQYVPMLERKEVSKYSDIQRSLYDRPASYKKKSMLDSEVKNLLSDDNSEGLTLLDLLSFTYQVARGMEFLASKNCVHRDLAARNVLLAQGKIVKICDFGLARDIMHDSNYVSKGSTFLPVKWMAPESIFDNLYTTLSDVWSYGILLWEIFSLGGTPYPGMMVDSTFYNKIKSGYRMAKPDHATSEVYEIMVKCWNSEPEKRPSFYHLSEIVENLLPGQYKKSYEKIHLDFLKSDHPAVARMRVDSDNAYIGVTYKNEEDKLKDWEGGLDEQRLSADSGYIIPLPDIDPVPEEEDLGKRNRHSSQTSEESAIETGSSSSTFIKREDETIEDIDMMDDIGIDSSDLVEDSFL
Method: Next, full length and truncated PDGF-C were tested for their capacity to bind to human PDGF receptors alpha and beta by analyzing their abilities to compete with PDGF-BB for binding to PDGF receptors. The binding experiments were performed on porcine aortic endothelial-1 (PAE-1) cells stably expressing the human PDGF receptors alpha and beta (Eriksson et al., EMBO J, 1992, 11, 543-550). Binding experiments were performed essentially as in Heldin et al. (EMBO J, 1988, 7:1387-1393). Different concentrations of human full-length and truncated PDGF-C, or human PDGF-BB were mixed with 5 ng/ml of ^125I-PDGF-BB in binding buffer (PBS containing 1 mg/ml of bovine serum albumin). Aliquots were incubated with the receptor expressing PAE-1 cells plated in 24-well culture dishes on ice for 90 minutes. After three washes with binding buffer, cell-bound 125]-PDGF-BB was extracted by lysis of cells in 20 mM Tris-HCl, pH 7.5, 10% glycerol, 1% Triton X-100. The amount of cell bound radioactivity was determined in a gamma-counter. A standard curve for the binding of ^125I-labeled PDGF BB homodimers to PAE-1 cells expressing PDGF alpha-receptor is shown in FIG. 18.

## VEGF
[1]; four weeks
  SMA expression: remained SMA negative
  expression of CD144 and CD31: still CD144 and CD31 positive
[1]; two weeks of stimulation
  adherence of AC133+CD34+ cells: enhanced
  expression of EC surface markers CD144 (VE-cadherin) and CD31 (PECAM): induced
  expression of smooth muscle cell marker SMA: did not become SMA positive
[2]
  migration of HMVECs: stimulated
[3]
  EC proliferation: highly stimulated
[4]; all concentrations, day 9, versus control
  distance over which microvessels grew out: increased
[4]; day 9, versus control
  number and emigration of perivascular fibroblast-like cells: in effective
[4]
  number of sprouting microvessels: increased
[5]
  hSMC migration: no effect

## Aprotinin
[6]
  inhibition of proteolytic processing of full-length PDGF-C: capacity to inhibit

## PDGF-AA: PDGF A-chain homodimer (R&D Systems), PDGFR-α ligand used as control
[3]
  EC proliferation: no effect
[7]
  migration of BAEC: no effect
[8]
  proliferation of cultured hSMC cells: stimulated
[4]; 5 ng/ml, day 9, versus control
  distance of vessel outgrowth: increased
[4]; day 9, versus control
  number and emigration of perivascular fibroblast-like cells: intermediate effect
[4]
  number of sprouting microvessels: no effect
[9]
  proliferation of cultured NIH-3T3 fibroblast cells: stimulated
[5]
  hSMC migration: stimulated

## PDGF-BB: human PDGF B-chain homodimer, unlabeled competitor and 125I tracer [reference compound]
[10]
  competition for binding to the PDGF alpha-receptor: competed efficiently
